Holding throughout (assay type): in vivo, rat (Sprague-Dawley)
In experiment [1] the test system is normalized minute ventilation. Put plainly: Plethysmographic minute ventilation after GR38032F (Example 2). The conditions noted are these: 1 mg/kg i.p., 6 recording hours, vs control; hydrochloride, dihydrate. The method, then:
(§1) Physiological parameters (see below) from each animal were recorded on 2 occasions in random order, with recordings for an individual animal separated for at least 3 days. Fifteen minutes prior to each recording each animal received a systemic injection (1 ml/kg intraperitoneal bolus injection) of either saline (control) or 1 mg/kg of ondansetron (GR38032F; 1,2,3,9-tetrahydro-9-methyl-3-[(2-methylimidazol-1-yl)methyl]carbazole-4-one, hydrochloride, dihydrate; Glaxo Wellcome, Inc., Research Triangle Park, N.C.). Polygraphic recordings were made from hours 10:00–16:00.
Respiration was recorded by placing each animal, unrestrained, inside a single chamber plethysmograph (PLYUNIR/U; Buxco Electronics, Sharon, Conn.; dimension 6 in.×10 in.×6 in.) ventilated with a bias flow of fresh room air at a rate of 2 L/min. […]
An accepted physiological animal model [rat; Monti, et al., Pharamcol. […] More specifically, sleep apneas, defined as cessation of respiratory effort for at least 2.5 seconds, were scored for each recording session and were associated with the stage of sleep in which they occurred: NREM or REM sleep. […] The events detected represent central apneas because decreased ventilation associated with obstructed or occluded airways would generate an increased plethysmographic signal, rather than a pause. […]

For a further experiment, the system named is NREM and REM sleep. The experiment is described as follows: Sleep/wake staging by EEG/EMG after GR38032F (Example 2). The conditions noted are these: 1 mg/kg i.p. On the procedure:
as §1
Respiration was recorded by placing each animal, unrestrained, inside a single chamber plethysmograph (PLYUNIR/U; Buxco Electronics, Sharon, Conn.; dimension 6 in.×10 in.×6 in.) ventilated with a bias flow of fresh room air at a rate of 2 L/min. A cable plugged onto the animal's connector and passed through a sealed port was used to carry the bioelectrical activity from the head implant.
Sleep and waking states were assessed using the biparietal EEG and nuchal EMG signals on 10-second epochs as described by Bennington et al. [Sleep, 17:28–36 (1994)]. […] Sleep efficiency was measured as the percentage of total recorded epochs staged as NREM or REM sleep.

A further experiment deals with sleep/wake architecture. Put plainly: Sleep/wake architecture after 5-HT and GR38032F (Example 3). The conditions noted are these: i.p. On the procedure:
Sleep and waking states were assessed using the biparietal EEG and nuchal EMG signals on 10-second epochs as described by Bennington et al. [Sleep, 17:28–36 (1994)]. This software discriminated wakefulness (W) as a high frequency low amplitude EEG with a concomitant high EMG tone, NREM sleep by increased spindle and […] activity together with decreased EMG tone, and REM sleep by a […] activity and an absence of EMG tone. Sleep efficiency was measured as the percentage of total recorded epochs staged as NREM or REM sleep.
Each animal was recorded on four occasions, with recordings for an individual animal separated by at least three days. Fifteen minutes prior to each recording, each animal received (via intraperitoneal injection), in random order, one of the following: (a) saline solution (control); (b) 0.79 mg/kg serotonin; (c) 0.1 mg/kg GR38032F plus 0.79 mg/kg serotonin; or (d) 0.1 mg/kg GR38032F. For the GR38032F+serotonin test group, 0.1 mg/kg GR38032F was administered at time 09:30 followed by 0.79 mg/kg serotonin at time 09:45. Polygraphic recordings were made from 10:00–16:00.
Respiration BP, EEG, and EMG data were determined and recorded via the experimental procedure as specifically set forth above in Example 2. As in Example 2, sleep apneas, defined as cessation of respiratory effort for at least 2.5 s, were scored for each recording session and were associated with the stage in which they occurred: NREM or REM sleep. The duration requirement of 2.5 s represents at least two “missed” breaths, which is analogous to a 10-s apnea duration requirement in humans.
The effects of sleep stage (NREM vs REM) and injection (control vs. administration of either serotonin alone, GR38032F+serotonin, or GR38032F alone) on apnea indexes, respiratory pattern, BP, and HP were tested using analysis of variance (ANOVA) with repeated measures. Multiple comparisons were controlled using Fisher's protected least-significance difference (PLSD). One-way ANOVA was also performed by nonparametric (Kruskal-Wallis) analysis. Conclusions using parametric and nonparametric ANOVA were identical in all cases.

Setting [2] is: percent recording time, 6 hours, 5-HT 0.79 mg/kg, GR38032F 0.1 mg/kg, mean ± SE.

“Also recorded” adds a separate entry of the source.

Results on one compound are retold here after US7160898B2, “Pharmacological treatment for sleep apnea” (Board of Trustees of The University of Illinois, priority 2002, dated 2007).

Take `Cc1nccn1CC1CCc2c(c3ccccc3n2C)C1=O.Cl.O.O` (stereo not shown) [GR38032F, 1,2,3,9-tetrahydro-9-methyl-3-[(2-methylimidazol-1-yl)methyl]carbazole-4-one, hydrochloride, dihydrate]: the “normalized minute ventilation during W, NREM and REM sleep” value in experiment [1] was “significantly larger; also recorded: significant stimulation of ventilation during all behavioral states”. Also, the “percentage of total recording time spent in REM sleep” value in the experiment with NREM and REM sleep (6 hours) is recorded as “did not significantly affect REM sleep”. Moreover, the “percentage of total recording time spent in NREM sleep” value in the experiment on NREM and REM sleep (first 2 hours, p<0.001) is given as “significant suppression of NREM sleep”. Further, in the experiment on sleep/wake architecture (6 hours of polygraphic recording), the “effect on sleep architecture” value is on record as “had no effect on sleep architecture”. In the experiment with sleep/wake architecture (setting [2]), the “% NREM” value amounted to 63.4 ± 5.7%, the “% REM” value came out at 7.3 ± 2.3% and the “% Wakefulness” value is listed as 28.8 ± 6.4%.
